# According to article PMC4534092, “Novel Penicillin Analogues as Potential Antimicrobial Agents; Design, Synthesis and Docking Studies” (PLoS ONE, 2015):
# Biological target: MurC (UDP-N-acetylmuramic acid:L-alanine ligase) (Escherichia coli, UniProt P17952)
# Experiment: Malachite green phosphate detection enzyme assay with […] MurC
# Assay type: biochemical
# Chain of MurC (UDP-N-acetylmuramic acid:L-alanine ligase) (P17952 whole entry): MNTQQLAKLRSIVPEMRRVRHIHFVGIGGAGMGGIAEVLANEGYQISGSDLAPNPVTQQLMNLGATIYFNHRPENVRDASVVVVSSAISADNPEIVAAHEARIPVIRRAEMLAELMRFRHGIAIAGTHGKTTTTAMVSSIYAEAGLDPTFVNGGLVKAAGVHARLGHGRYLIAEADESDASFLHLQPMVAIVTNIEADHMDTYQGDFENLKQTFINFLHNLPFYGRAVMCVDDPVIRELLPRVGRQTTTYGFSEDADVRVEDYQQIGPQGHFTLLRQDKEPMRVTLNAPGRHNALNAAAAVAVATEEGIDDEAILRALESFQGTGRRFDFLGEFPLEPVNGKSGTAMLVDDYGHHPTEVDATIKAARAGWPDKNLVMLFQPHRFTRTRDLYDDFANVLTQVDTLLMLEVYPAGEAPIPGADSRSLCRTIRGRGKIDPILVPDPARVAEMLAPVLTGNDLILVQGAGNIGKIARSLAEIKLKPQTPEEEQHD
row,Compound,IC50 [µM]
1,"COc1ccc2cc(C(C)C(=O)NC3C(=O)N4C3SC(C)(C)C4C(=O)O)ccc2c1 [4e, (2S,5R,6S)-6-(3'-(11'-methoxynaphthalen-5'-yl)propanamido)-3,3-dimethyl-7-oxo-4-thia-1-azabicyclo[3.2.0]heptane-2-carboxylic acid]",12.5
2,Nc1ncnc2c1ncn2[C@@H]1O[C@H](COP(=O)(O)OP(=O)(O)CP(=O)(O)O)[C@@H](O)[C@H]1O [AMP-PCP],17
